Measurements: publication PMC10623572, “Subtle Structural Modification of a Synthetic Cannabinoid Receptor Agonist Drastically Increases its Efficacy at the CB1 Receptor” (ACS Chemical Neuroscience, 2023)

Assays:
[1] = molecular target: T1, CB1R (presynaptic, mouse hippocampus) (Mus musculus, UniProt P47746); experiment: fEPSP field recording, inhibition of glutamate release in hippocampal slices; details: agonist; native presynaptic receptor, downstream read-out; 31-32 °C; 50 µM caffeine; reversed by AM251
T1 construct: gene Cnr1; native receptor in hippocampal brain slices

CB1R (CB1R-Rluc) [2] = molecular target: T2, CB1R (CB1R-Rluc) (Homo sapiens, UniProt P21554); experiment: BRET CB1R-Rluc/Gi1-Venus engagement; format: cell-based
T2 construct: gene CNR1; Rluc-fused receptor in HEK-293T cells; with mVenus-Gi1 plus Gbeta1/Ggamma2, or beta-arrestin 2-Venus plus GRK2

CB1R (CB1R-Rluc) [3] = molecular target: T2, CB1R (CB1R-Rluc); experiment: BRET CB1R-Rluc/beta-arrestin 2-Venus recruitment; format: cell-based
Text: BRET CB1R-Rluc/beta-arrestin 2-Venus recruitment on CB1R (CB1R-Rluc)

[4] = read-out: 5F-MMB-PICA (converted)
[5] = read-out: 5F-SDB-006 (converted)

T2 sequence (P21554 whole entry, the tested form may be a part): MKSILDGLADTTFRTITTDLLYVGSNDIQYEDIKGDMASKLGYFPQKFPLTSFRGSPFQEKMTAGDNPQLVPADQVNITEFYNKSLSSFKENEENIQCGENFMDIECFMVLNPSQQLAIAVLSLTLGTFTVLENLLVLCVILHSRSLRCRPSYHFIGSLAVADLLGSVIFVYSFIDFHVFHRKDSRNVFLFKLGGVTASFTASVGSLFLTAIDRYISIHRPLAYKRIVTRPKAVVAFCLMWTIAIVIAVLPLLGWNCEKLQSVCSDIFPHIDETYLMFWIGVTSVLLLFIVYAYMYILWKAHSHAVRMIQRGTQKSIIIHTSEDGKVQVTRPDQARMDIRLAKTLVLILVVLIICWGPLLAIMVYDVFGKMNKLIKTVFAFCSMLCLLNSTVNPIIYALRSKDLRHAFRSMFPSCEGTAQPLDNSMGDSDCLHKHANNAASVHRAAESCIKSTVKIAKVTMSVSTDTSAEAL
T1 sequence (P47746 whole entry): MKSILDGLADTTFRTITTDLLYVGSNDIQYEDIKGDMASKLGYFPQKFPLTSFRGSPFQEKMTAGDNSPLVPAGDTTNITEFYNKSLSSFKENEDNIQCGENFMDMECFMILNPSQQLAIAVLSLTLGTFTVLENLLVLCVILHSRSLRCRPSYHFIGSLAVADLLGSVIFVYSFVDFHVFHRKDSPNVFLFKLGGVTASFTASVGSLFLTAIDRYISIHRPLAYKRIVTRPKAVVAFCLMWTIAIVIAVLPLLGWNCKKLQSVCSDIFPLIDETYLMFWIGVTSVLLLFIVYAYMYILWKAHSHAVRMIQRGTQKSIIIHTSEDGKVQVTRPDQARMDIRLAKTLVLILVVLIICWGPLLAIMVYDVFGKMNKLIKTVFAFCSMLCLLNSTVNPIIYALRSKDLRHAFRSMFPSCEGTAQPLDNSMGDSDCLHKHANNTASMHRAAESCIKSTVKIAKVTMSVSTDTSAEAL

## COC(=O)C(NC(=O)c1cn(CCCCCF)c2ccccc12)C(C)(C)C (stereo not shown) [5F-MDMB-PICA]
[1]
  pEC50: 7.20

## COC(=O)C(NC(=O)c1cn(CCCCCF)c2ccccc12)C(C)C (stereo not shown) [5F-MMB-PICA]
CB1R (CB1R-Rluc) [2]; [4]
  EC50: 2950 nM
CB1R (CB1R-Rluc) [3]; [4]
  EC50: 3630 nM
[1]
  pEC50: 6.72

## O=C(Nc1cccc2ccccc12)c1cn(CCCCCF)c2ccccc12 [5F-NNEI]
CB1R (CB1R-Rluc) [2]; read-out: 5F-NNEI (converted)
  EC50: 4680 nM
CB1R (CB1R-Rluc) [3]; read-out: 5F-NNEI
  EC50: 5250 nM

## O=C(NCc1ccccc1)c1cn(CCCCCF)c2ccccc12 [5F-SDB-006]
CB1R (CB1R-Rluc) [2]; [5]
  EC50: 1480 nM
CB1R (CB1R-Rluc) [3]; [5]
  EC50: 2450 nM

## O=C(c1cccc2ccccc12)c1cn(CCCCCF)c2ccccc12 [AM2201]
CB1R (CB1R-Rluc) [2]; read-out: AM2201 (converted)
  EC50: 339 nM
CB1R (CB1R-Rluc) [3]; read-out: AM2201 (converted)
  EC50: 759 nM
